Laboratory results published in ChEMBL document CHEMBL1136732, “Discovery of 5-[5-fluoro-2-oxo-1,2- dihydroindol-(3Z)-ylidenemethyl]-2,4- dimethyl-1H-pyrrole-3-carboxylic acid (2-diethylaminoethyl)amide, a novel tyrosine kinase inhibitor targeting vascular endothelial and platelet-derived growth factor receptor tyrosine kinase” (J Med Chem, 2003).
Values after ≈ are worked out from the molar mass of the structure shown.

Columns and labels:
[1] = target: Platelet-derived growth factor receptor beta (Homo sapiens, UniProt P09619)
Sequence of Platelet-derived growth factor receptor beta (P09619 whole entry): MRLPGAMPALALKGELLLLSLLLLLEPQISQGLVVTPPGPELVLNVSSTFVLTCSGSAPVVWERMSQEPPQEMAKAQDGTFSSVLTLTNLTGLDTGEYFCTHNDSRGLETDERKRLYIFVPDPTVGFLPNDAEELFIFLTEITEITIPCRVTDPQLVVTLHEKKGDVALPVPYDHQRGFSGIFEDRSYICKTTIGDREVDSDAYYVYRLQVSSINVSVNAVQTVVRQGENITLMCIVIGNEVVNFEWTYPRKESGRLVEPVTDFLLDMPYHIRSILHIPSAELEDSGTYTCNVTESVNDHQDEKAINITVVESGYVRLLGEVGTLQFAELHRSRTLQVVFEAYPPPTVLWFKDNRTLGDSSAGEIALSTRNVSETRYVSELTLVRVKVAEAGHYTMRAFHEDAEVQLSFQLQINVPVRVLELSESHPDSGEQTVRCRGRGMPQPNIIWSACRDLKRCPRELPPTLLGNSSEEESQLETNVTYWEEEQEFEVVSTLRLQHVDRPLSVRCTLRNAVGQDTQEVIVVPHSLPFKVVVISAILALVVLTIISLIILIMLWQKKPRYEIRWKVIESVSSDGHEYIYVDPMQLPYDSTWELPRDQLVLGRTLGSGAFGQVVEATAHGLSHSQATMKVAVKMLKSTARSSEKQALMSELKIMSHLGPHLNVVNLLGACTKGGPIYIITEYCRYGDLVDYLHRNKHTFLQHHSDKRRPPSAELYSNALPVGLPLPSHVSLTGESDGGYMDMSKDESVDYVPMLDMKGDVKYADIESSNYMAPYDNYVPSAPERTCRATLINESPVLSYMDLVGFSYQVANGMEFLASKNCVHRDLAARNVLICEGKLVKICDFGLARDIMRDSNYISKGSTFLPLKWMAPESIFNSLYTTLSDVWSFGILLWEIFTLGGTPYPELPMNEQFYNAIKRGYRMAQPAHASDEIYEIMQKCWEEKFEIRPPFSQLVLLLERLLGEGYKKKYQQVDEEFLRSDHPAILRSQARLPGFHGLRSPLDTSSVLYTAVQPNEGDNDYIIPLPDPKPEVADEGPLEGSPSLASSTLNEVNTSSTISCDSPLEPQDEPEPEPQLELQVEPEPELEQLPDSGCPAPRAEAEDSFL

[2] = target: Fibroblast growth factor receptor 1 (Homo sapiens, UniProt P11362)
Sequence of Fibroblast growth factor receptor 1 (P11362 whole entry): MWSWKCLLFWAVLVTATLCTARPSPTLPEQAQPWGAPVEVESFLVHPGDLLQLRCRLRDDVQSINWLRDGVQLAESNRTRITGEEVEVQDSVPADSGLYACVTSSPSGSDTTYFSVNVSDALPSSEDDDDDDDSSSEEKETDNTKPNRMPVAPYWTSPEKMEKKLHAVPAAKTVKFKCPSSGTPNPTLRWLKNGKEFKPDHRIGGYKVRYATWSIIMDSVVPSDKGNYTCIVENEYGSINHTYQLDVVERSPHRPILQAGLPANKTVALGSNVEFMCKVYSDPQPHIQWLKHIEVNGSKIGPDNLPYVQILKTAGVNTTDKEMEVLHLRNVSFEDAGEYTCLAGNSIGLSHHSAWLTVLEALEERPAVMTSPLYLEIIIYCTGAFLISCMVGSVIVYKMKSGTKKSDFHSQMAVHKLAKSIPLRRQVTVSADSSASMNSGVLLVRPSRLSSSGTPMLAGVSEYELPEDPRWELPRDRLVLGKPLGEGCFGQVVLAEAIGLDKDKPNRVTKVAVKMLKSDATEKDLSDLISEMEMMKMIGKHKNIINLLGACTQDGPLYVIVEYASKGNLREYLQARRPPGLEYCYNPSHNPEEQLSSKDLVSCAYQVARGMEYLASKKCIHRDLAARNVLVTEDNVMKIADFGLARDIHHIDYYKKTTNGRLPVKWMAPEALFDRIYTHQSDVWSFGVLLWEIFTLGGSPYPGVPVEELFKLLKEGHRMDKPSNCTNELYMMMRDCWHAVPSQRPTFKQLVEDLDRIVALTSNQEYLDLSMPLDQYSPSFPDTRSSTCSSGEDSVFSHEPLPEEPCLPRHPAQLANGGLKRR

[3] = Solubility in 20 mM buffered solution after shaking for 24 hr at 22 degree celsius at pH 2; format: physicochemical
[4] = target: Epidermal growth factor receptor (Homo sapiens, UniProt P00533)
Sequence of Epidermal growth factor receptor (P00533 whole entry): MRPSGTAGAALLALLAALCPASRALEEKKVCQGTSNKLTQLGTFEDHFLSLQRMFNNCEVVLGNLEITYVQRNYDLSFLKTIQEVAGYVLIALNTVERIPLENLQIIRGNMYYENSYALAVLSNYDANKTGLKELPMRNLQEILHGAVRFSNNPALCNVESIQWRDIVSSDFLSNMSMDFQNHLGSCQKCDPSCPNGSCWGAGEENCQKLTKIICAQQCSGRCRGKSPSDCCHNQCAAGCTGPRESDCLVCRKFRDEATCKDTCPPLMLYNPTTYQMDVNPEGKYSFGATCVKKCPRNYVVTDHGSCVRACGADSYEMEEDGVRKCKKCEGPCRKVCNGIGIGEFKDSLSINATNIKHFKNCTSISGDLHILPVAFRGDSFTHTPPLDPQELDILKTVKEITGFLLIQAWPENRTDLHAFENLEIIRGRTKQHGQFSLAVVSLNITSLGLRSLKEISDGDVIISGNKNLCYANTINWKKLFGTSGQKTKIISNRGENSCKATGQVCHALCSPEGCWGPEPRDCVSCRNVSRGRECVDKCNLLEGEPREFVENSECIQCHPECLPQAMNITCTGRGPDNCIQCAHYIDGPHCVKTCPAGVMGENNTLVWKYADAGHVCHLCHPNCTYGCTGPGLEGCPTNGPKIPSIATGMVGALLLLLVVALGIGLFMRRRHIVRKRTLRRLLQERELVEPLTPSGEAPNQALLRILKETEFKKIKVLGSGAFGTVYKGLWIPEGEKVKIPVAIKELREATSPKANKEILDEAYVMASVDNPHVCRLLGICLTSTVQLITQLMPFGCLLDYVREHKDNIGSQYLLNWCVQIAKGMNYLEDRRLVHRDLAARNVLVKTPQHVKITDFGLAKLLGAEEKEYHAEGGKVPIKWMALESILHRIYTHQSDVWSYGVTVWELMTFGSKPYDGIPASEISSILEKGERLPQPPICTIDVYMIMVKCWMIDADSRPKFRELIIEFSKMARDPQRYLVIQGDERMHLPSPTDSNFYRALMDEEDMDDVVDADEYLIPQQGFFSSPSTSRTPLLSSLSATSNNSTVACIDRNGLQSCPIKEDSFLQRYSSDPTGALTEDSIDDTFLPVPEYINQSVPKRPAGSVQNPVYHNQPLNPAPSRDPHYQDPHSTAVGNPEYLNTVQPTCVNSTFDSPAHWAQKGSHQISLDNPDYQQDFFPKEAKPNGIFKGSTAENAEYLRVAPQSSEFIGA

[5] = target: Vascular endothelial growth factor receptor 2 (Homo sapiens, UniProt P35968)
Sequence of Vascular endothelial growth factor receptor 2 (P35968 whole entry): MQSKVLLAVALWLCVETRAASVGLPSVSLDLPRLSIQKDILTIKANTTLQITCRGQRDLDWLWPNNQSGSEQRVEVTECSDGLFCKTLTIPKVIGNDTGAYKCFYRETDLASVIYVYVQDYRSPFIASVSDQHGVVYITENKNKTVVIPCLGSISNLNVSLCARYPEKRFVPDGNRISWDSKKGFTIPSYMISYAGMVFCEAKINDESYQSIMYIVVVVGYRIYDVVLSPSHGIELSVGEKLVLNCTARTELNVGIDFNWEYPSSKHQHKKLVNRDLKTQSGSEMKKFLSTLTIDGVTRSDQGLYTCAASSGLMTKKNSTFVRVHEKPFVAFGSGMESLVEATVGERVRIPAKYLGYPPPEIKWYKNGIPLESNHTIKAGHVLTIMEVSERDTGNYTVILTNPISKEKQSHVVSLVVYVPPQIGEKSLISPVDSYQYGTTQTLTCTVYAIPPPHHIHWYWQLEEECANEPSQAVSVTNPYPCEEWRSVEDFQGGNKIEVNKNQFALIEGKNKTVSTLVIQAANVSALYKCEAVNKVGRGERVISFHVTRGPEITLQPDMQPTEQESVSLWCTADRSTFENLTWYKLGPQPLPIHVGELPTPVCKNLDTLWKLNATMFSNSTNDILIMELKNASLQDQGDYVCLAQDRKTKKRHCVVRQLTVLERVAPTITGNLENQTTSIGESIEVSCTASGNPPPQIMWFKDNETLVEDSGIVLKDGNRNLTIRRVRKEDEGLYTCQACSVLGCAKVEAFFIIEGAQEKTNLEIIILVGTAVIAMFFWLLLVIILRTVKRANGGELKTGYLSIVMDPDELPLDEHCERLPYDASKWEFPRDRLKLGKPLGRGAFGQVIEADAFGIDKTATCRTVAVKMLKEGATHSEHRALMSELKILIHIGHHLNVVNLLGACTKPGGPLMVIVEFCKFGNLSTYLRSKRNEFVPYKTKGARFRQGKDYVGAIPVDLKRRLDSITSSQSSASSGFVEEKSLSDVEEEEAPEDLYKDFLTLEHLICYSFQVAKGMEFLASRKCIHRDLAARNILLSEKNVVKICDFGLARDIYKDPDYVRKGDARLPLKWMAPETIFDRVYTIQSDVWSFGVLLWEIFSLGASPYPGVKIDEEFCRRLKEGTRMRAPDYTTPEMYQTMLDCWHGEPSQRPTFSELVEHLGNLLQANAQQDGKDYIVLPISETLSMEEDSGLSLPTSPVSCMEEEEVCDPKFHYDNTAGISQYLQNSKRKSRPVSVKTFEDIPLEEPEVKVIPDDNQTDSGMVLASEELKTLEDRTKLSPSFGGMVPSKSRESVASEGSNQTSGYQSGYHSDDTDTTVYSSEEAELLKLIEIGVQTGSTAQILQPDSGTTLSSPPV

[6] = In vitro cytotoxicity was determined; conditions: read-out: LD50 (the source's name)
[7] = Solubility in 20 mM buffered solution after shaking for 24 hr at 22 degree celsius at pH 6; format: physicochemical

Row | SMILES | IC50 [1] [nM] | IC50 [2] [nM] | solubility thermodynamic at 24 h [3] [µg/mL] | IC50 [4] [nM] | IC50 [5] [nM] | CC50 [6] [nM] | solubility thermodynamic at 24 h [7] [µg/mL]
1 | Cc1[nH]c(/C=C2\C(=O)Nc3ccc(F)cc32)c(C)c1C(=O)NCc1ccncc1 | 1 | 3100 | 486 (≈ 1240 µM) | > 20000 | < 160 | > 50000 | 
2 | CCN(CC)CCNC(=O)c1c(C)[nH]c(/C=C2\C(=O)Nc3ccc(Cl)cc32)c1C [SU-11652] | 3 | 170 | 3260 (≈ 7850 µM) | > 20000 | 27 | 15600 | 186 (≈ 448 µM)
3 | Cc1[nH]c(/C=C2\C(=O)Nc3ccccc32)c(C)c1CCC(=O)O [ORANTINIB] |  |  | < 5 |  |  | > 50000 | 
4 | Cc1[nH]c(/C=C2\C(=O)Nc3ccc(F)cc32)c(C)c1C(=O)NCCn1cncn1 | 10 | 17100 | 2 (≈ 5.07 µM) | > 20000 | 85 | > 50000 | 6 (≈ 15.2 µM)
5 | Cc1cc(C)c(/C=C2\C(=O)Nc3ccccc32)[nH]1 [SEMAXANIB] |  |  | < 1 |  |  | > 50000 | < 1
6 | Cc1[nH]c(/C=C2\C(=O)Nc3ccccc32)c(C)c1CCCN1CCN(C)CC1 | 60 | 4200 |  | > 20000 | 300 | > 50000 | 
7 | Cc1[nH]c(/C=C2\C(=O)Nc3ccc(F)cc32)c(C)c1C(=O)NCCN1CCCC1 [TOCERANIB] | 1 | 3900 | 3320 (≈ 8370 µM) | > 20000 | 60 | 49000 | 9 (≈ 22.7 µM)
8 | CCN(CC)CCNC(=O)c1c(C)[nH]c(/C=C2\C(=O)Nc3ccc(F)cc32)c1C [SUNITINIB] |  |  | 2580 (≈ 6480 µM) |  |  | 48900 | 364 (≈ 913 µM)
9 | CCN(CC)CCNC(=O)c1c(C)[nH]c(/C=C2\C(=O)Nc3ccc(Br)cc32)c1C | 5 |  | 1300 (≈ 2830 µM) | 10000 | 32 | 16300 | 101 (≈ 220 µM)
10 | Cc1[nH]c(/C=C2\C(=O)Nc3ccc(F)cc32)c(C)c1C(=O)NCC1CCN(C)CC1 | 3 | 200 | > 250 |  | 25 | 38000 | > 250
11 | Cc1[nH]c(/C=C2\C(=O)Nc3ccc(F)cc32)c(C)c1C(=O)NCCN(C)C | 0.5 | 1600 | 3010 (≈ 8130 µM) | > 20000 | 80 | 48500 | 75 (≈ 202 µM)
12 | Cc1[nH]c(/C=C2\C(=O)Nc3ccc(F)cc32)c(C)c1C(=O)NCCN1CCOCC1 | 2 | 2600 | 2940 (≈ 7140 µM) | > 20000 | 90 | > 50000 | 0.3 (≈ 0.727 µM)
13 | CCN(CC)CCNC(=O)c1c(C)[nH]c(/C=C2\C(=O)Nc3ccccc32)c1C | 17 | 880 | 3020 (≈ 7940 µM) | > 20000 | 50 | > 50000 | 511 (≈ 1340 µM)
